Test results as given in paper PMC4210194, “Cyanobacterial Light-Driven Proton Pump, Gloeobacter Rhodopsin: Complementarity between Rhodopsin-Based Energy Production and Photosynthesis” (PLoS ONE, 2014).

What was measured:
[1] = biological target: T1, Gloeobacter rhodopsin (GR, Gloeorhodopsin) (Gloeobacter violaceus, UniProt Q7NP59); assay: UV/VIS absorption of purified pigment; type: binding; conditions: covalent (protonated Schiff base, Lys257); 50 mM Tris pH 7, 150 mM NaCl, 0.02% DDM
T1 construct: gene gll0198
T1 sequence (Q7NP59 entry or part of it): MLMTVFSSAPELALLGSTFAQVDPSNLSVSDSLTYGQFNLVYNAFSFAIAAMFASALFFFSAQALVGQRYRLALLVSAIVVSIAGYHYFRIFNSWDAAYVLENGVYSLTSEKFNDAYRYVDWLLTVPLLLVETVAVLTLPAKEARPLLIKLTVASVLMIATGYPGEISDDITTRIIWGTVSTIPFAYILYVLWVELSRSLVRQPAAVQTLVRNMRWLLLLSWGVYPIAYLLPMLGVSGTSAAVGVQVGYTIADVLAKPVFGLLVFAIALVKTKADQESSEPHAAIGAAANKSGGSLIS

Asp121 = Asp121 (UniProt position 121, AYRYVDWLLTV); assay: UV-vis; conditions: 3-mix buffer (starting at pH ca. 12, adjusted downward with HCl); retinal-bound pigment, unphotolysed state; light or dark adaptation not stated

Compound | UV/VIS absorption of purified pigment [1] | pKa (Asp121)
CC1=C(/C=C/C(C)=C/C=C/C(C)=C/C=O)C(C)(C)CCC1 [all-trans retinal] | expressed in Escherichia coli and bound all-trans retinal to form a pigment | 
Gloeobacter rhodopsin (GR, Gloeorhodopsin) (Gloeobacter violaceus PCC 7421) |  | 5.9
